{"source": "ChEMBL document CHEMBL1137946", "about": "“Synthesis and biological evaluation of (-)-laulimalide analogues” (Bioorg Med Chem Lett, 2004)", "key": {"[1]": {"system": "MDA-MB-435", "test": "In vitro growth inhibitory activity against MDA-MB-435 human breast cancer cell line", "assay_type": "functional, cell-based"}, "[2]": {"system": "HT-29", "test": "In vitro growth inhibitory activity against HT-29 human colon cancer cell line", "assay_type": "functional, cell-based"}}, "data": [{"compound": "C=C1C[C@H](C)C[C@@H]2CC=C[C@@H](CCCC(=O)O[C@H]([C@H](/C=C/[C@@H]3CC(C)=CCO3)OC)C[C@@H]3O[C@H]3[C@@H](O)C1)O2", "values": [{"measurement": "IC50", "setting": "[1]", "value": "> 1", "unit": "µM"}, {"measurement": "IC50", "setting": "[2]", "value": "> 1", "unit": "µM"}]}, {"compound": "C=C1C[C@H](C)C[C@@H]2CC=C[C@@H](C/C=C\\C(=O)O[C@H]([C@H](/C=C/[C@@H]3CC(C)=CCO3)OC)C[C@@H]3O[C@H]3[C@@H](O)C1)O2", "values": [{"measurement": "IC50", "setting": "[1]", "value": 0.242, "unit": "µM"}, {"measurement": "IC50", "setting": "[2]", "value": 0.59, "unit": "µM"}]}, {"compound": "C=C1C[C@H](C)C[C@@H]2CC=C[C@@H](C/C=C\\C(=O)O[C@H]([C@@H](O)/C=C/[C@@H]3CC(C)=CCO3)C[C@H]3O[C@@H]3[C@H](OC(=O)c3ccc([N+](=O)[O-])cc3)C1)O2", "values": [{"measurement": "IC50", "setting": "[1]", "value": "> 1", "unit": "µM"}]}, {"compound": "C=C1C[C@H](C)C[C@@H]2CC=C[C@@H](C/C=C\\C(=O)O[C@H]([C@@H](O)/C=C/[C@@H]3CC(C)=CCO3)C/C=C/[C@H](O)C1)O2", "values": [{"measurement": "IC50", "setting": "[1]", "value": 0.79, "unit": "µM"}, {"measurement": "IC50", "setting": "[2]", "value": 2.7, "unit": "µM"}]}, {"compound": "C=C1C[C@H](C)C[C@@H]2CC=C[C@@H](C/C=C\\C(=O)O[C@H]([C@H](/C=C/[C@@H]3CC(C)=CCO3)OC(C)=O)C[C@@H]3O[C@H]3[C@@H](O)C1)O2", "values": [{"measurement": "IC50", "setting": "[1]", "value": 0.091, "unit": "µM"}]}, {"compound": "C=C1C[C@H](C)C[C@@H]2CC=C[C@@H](C/C=C\\C(=O)O[C@H]([C@@H](O)/C=C/[C@@H]3CC(C)=CCO3)C[C@H]3O[C@@H]3[C@H](O)C1)O2", "values": [{"measurement": "IC50", "setting": "[1]", "value": 0.176, "unit": "µM"}]}, {"compound": "C=C1C[C@H](C)C[C@@H]2CC=C[C@@H](C/C=C\\C(=O)O[C@H]([C@H](/C=C/[C@@H]3CC(C)=CCO3)O[Si](C)(C)C(C)(C)C)C[C@@H]3O[C@H]3[C@@H](O)C1)O2", "values": [{"measurement": "IC50", "setting": "[1]", "value": "> 1", "unit": "µM"}]}, {"compound": "C=C1CC(=O)/C=C/C[C@@H]([C@@H](O)/C=C/[C@@H]2CC(C)=CCO2)OC(=O)/C=C\\C[C@@H]2C=CC[C@@H](C[C@@H](C)C1)O2", "values": [{"measurement": "IC50", "setting": "[1]", "value": "> 1", "unit": "µM"}]}, {"compound": "C=C1CC(=N\\OC)/C=C/C[C@@H]([C@@H](O)/C=C/[C@@H]2CC(C)=CCO2)OC(=O)/C=C\\C[C@@H]2C=CC[C@@H](C[C@@H](C)C1)O2", "values": [{"measurement": "IC50", "setting": "[1]", "value": "> 1", "unit": "µM"}]}, {"compound": "C=C1C[C@H](C)C[C@@H]2CC=C[C@@H](C/C=C\\C(=O)O[C@H]([C@@H](O)/C=C/[C@@H]3CC(C)=CCO3)C[C@@H]3O[C@H]3[C@H](OC(=O)N(C)C)C1)O2", "values": [{"measurement": "IC50", "setting": "[1]", "value": 0.601, "unit": "µM"}]}, {"compound": "C=C1C[C@H](C)C[C@@H]2CC=C[C@@H](C/C=C\\C(=O)O[C@H]([C@@H](O)/C=C/[C@@H]3CC(C)=CCO3)C[C@@H]3O[C@H]3[C@H](OC(=O)c3ccc([N+](=O)[O-])cc3)C1)O2", "values": [{"measurement": "IC50", "setting": "[1]", "value": 0.037, "unit": "µM"}]}, {"compound": "C=C1C[C@H](C)C[C@@H]2CC=C[C@@H](C/C=C/C(=O)O[C@H]([C@@H](O)/C=C/[C@@H]3CC(C)=CCO3)C/C=C/[C@@H](O)C1)O2", "values": [{"measurement": "IC50", "setting": "[1]", "value": 2.76, "unit": "µM"}, {"measurement": "IC50", "setting": "[2]", "value": 8.5, "unit": "µM"}]}, {"compound": "C=C1C[C@H](C)C[C@@H]2CC=C[C@@H](C/C=C\\C(=O)O[C@H]([C@@H](O)/C=C/[C@@H]3CC(C)=CCO3)C[C@@H]3O[C@H]3[C@@H](OC)C1)O2", "values": [{"measurement": "IC50", "setting": "[1]", "value": "> 1", "unit": "µM"}]}, {"compound": "C=C1C[C@H](C)C[C@@H]2CC=C[C@@H](C/C=C\\C(=O)O[C@H]([C@@H](O)/C=C/[C@@H]3CC(C)=CCO3)C[C@@H]3O[C@H]3[C@@H](OC(C)=O)C1)O2", "values": [{"measurement": "IC50", "setting": "[1]", "value": 0.023, "unit": "µM"}]}, {"compound": "C=C1C[C@H](C)C[C@@H]2CC=C[C@@H](C/C=C/C(=O)O[C@H]([C@@H](O)/C=C/[C@@H]3CC(C)=CCO3)C/C=C/[C@H](O)C1)O2", "values": [{"measurement": "IC50", "setting": "[1]", "value": 4.29, "unit": "µM"}, {"measurement": "IC50", "setting": "[2]", "value": 9.6, "unit": "µM"}]}, {"compound": "C=C1C[C@H](C)C[C@@H]2CC=C[C@@H](CC#CC(=O)O[C@H]([C@H](/C=C/[C@@H]3CC(C)=CCO3)OC)C[C@@H]3O[C@H]3[C@@H](O)C1)O2", "values": [{"measurement": "IC50", "setting": "[1]", "value": "> 1", "unit": "µM"}, {"measurement": "IC50", "setting": "[2]", "value": "> 1", "unit": "µM"}]}, {"compound": "C=C1C[C@H](C)C[C@@H]2CC=C[C@@H](C/C=C\\C(=O)O[C@H]([C@@H](O)/C=C/[C@@H]3CC(C)=CCO3)C[C@@H]3O[C@H]3[C@H](OC(=O)OC)C1)O2", "values": [{"measurement": "IC50", "setting": "[1]", "value": 0.422, "unit": "µM"}]}, {"compound": "C=C1C[C@H](C)C[C@@H]2CC=C[C@@H](C/C=C\\C(=O)O[C@H]([C@@H](O)/C=C/[C@@H]3CC(C)=CCO3)C/C=C/[C@@H](O)C1)O2", "values": [{"measurement": "IC50", "setting": "[1]", "value": 0.289, "unit": "µM"}, {"measurement": "IC50", "setting": "[2]", "value": 0.96, "unit": "µM"}]}, {"compound": "C=C1C[C@H](C)C[C@@H]2CC=C[C@@H](C/C=C\\C(=O)O[C@H]([C@@H](O)/C=C/[C@@H]3CC(C)=CCO3)C[C@@H]3O[C@H]3[C@@H](O)C1)O2", "note": "[FIJIANOLIDE B]", "values": [{"measurement": "IC50", "setting": "[1]", "value": 0.0023, "unit": "µM"}, {"measurement": "IC50", "setting": "[2]", "value": 0.0069, "unit": "µM"}]}, {"compound": "C=C1C[C@H](C)C[C@@H]2CC=C[C@@H](C/C=C\\C(=O)O[C@H]([C@H](/C=C/[C@@H]3CC(C)=CCO3)OC(C)=O)C[C@@H]3O[C@H]3[C@@H](OC(C)=O)C1)O2", "values": [{"measurement": "IC50", "setting": "[1]", "value": 0.289, "unit": "µM"}]}]}
